This note sets out measurements from patent US9415035B2, “Compositions containing omega-3 oil with an anti-inflammatory agent and uses thereof” (Maine Natural Health Company, Inc., priority 2010, dated 2016).

For the assay, the system named is companion animals (cats and dogs). Put plainly: Companion animal mobility, further addition of glucosamine. The class given is in vivo. Also on record: dose or concentration left out as unconfirmed. As to conditions: glucosamine added to OmegaMaine omega-3 oil; data not shown. On the procedure: Cats (n=5) were given 2.5 mL (½ teaspoon) of OmegaMaine liquid omega-3 oil by adding directly to their food. Dogs (n=5) were given 5 mL (1 teaspoon) of OmegaMaine omega-3 oil by adding directly to their food. For reference, 5 mL of OmegaMaine omega-3 oil contains, minimally, 800 mg of EPA, and, minimally, 750 mg of DHA. Animals were scored on a scale of 1 to 10, where 10 was behavior like a kitten or a puppy and 1 was severe immobility. All animals in the test group average 8 years of age. Animals were evaluated prior to treatment and 2 weeks after daily treatment with OmegaMaine omega-3 oil (Table 4).

Each structure is given as a SMILES string.

On to `N[C@H]1C(O)O[C@H](CO)[C@@H](O)[C@@H]1O` (stereo partly shown) [glucosamine], for which the “therapeutic benefit on mobility” value is “additional therapeutic benefit”.
